From patent publication US7759366B2 (Sanofi-Aventis, priority 2006, dated 2010) come the findings set out here.

Counter-ions that a name gives are not always drawn. Like-named read-outs stand apart in the source and are kept apart here. Bounds are passed on as bounds.

In test [1] the target is hCB2R (Homo sapiens, UniProt P34972). The test is described as follows: In vitro functional assay (FLIPR, intracellular Ca2+) with recombinant HEK293 cells, CB2.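 Further: intracellular Ca2+ was tracked with the fluorescent dye Fluo-4 loaded into the cells before test substance addition.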
Method: Function-testing assays were performed by means of the FLIPR technique (“Fluorometric Imaging Plate Reader”, Molecular Devices Corp.).
To this end, ligand-induced changes in the intracellular concentration of Ca^2+ in recombinant HEK293 cells, which expressed both a cannabinoid receptor (CB1 or CB2) and G-protein Galpha16, were determined. For the studies, cells were sown into 96-well microtiter plates (60 000 cells/well) and left to grow overnight. The medium was removed and the cells were incubated in buffer which contained the fluorescent dye Fluo-4. After this loading with dye, the cells were washed, test substance was added dissolved in buffer, the mixture was incubated for 20 minutes, a known cannabinoid receptor agonist as a reference agonist was added in buffer and, finally, the changes in the intracellular Ca^2+ concentration were measured in the FLIPR unit.
Test [2] has as its target T1, hCB1R (Homo sapiens, UniProt P21554). The experiment in a line: Binding to the CB1 receptor ([3H]-SR141716A displacement). The method in brief:
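[3H]-SR141716A displacement at hCB1R; test compounds at final 10 μM to 0.005 μM in assay buffer with 1% DMSO, duplicate determinations. Low control 1 μM AM 251, high control binding without compound; IC50 from curve fit, converted to Ki via Cheng-Prusoff using Kd.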

Test [3] concerns the target T1, hCB1R. The test is described as follows: In vitro functional assay (FLIPR, intracellular Ca2+) with recombinant HEK293 cells, CB1. The test is classed as cell-based. Details: expressed in transfected cells; host or cells: HEK293. The text has this: In Vitro Functional Assays with Recombinant Cells:
The mark [4] stands for this setting: read-out: hCB2R: FLIPR, IC50, recombinant HEK293 cells expressing CB2 and Galpha16, 20 min preincubation, then reference agonist, Ca2+ change.
The mark [5] stands for this setting: recombinant HEK293 cells expressing CB1 and Galpha16, 20 min preincubation, then reference agonist, Ca2+ change, read-out: hCB1R: FLIPR, IC50.

T1 sequence (P21554 whole entry): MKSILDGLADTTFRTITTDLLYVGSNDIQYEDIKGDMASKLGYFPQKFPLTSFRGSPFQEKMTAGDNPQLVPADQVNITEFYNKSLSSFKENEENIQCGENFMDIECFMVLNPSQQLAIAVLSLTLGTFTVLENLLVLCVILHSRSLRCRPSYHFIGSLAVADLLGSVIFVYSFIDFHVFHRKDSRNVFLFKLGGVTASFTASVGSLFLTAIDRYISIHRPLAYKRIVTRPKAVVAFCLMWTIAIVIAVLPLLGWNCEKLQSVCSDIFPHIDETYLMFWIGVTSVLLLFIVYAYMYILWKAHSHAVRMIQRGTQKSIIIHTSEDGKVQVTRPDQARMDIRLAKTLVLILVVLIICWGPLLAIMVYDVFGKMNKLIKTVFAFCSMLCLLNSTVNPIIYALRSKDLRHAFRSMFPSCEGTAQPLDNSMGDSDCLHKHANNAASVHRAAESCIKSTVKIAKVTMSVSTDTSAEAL
Chain of hCB2R (P34972 whole entry): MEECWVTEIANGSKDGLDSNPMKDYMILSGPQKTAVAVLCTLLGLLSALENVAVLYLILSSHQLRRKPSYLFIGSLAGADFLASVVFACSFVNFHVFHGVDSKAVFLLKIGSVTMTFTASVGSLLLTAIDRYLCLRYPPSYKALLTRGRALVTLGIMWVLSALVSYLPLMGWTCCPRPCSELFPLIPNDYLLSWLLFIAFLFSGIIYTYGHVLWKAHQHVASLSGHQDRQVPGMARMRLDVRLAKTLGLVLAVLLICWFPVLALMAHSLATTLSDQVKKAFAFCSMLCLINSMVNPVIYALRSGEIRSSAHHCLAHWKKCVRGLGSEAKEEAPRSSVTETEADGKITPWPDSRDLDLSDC

Turning to `CC1(C)C(=O)N(c2ccc(C#N)c(C(F)(F)F)c2)C(=O)N1Cc1ccccc1Nc1ccccc1` [Example 1, 4-[4,4-Dimethyl-2,5-dioxo-3-(2-phenylaminobenzyl)imidazolidin-1-yl]-2-trifluoromethylbenzonitrile], the figures for the IC50 in test [1] (setting [4]) and in test [3] were over 10000 nM and 10 nM, respectively. Also, the Ki in test [2] was determined as 13 nM.

As for `CC1(C)C(=O)N(c2ccc(C#N)c(C(F)(F)F)c2)C(=O)N1Cc1ccccc1Nc1ccc(F)cc1` [Example 2, 4-{3-[2-(4-fluorophenylamino)benzyl]-4,4-dimethyl-2,5-dioxoimidazolidin-1-yl}-2-trifluoromethylbenzonitrile], the IC50 in test [1] (setting [4]) is over 10000 nM; in test [3], 11 nM.

For `CC1(C)C(=O)N(c2ccc(C#N)c(C(F)(F)F)c2)C(=O)N1Cc1ccc(Nc2ccccc2)cc1` [Example 30, 4-[4,4-Dimethyl-2,5-dioxo-3-(4-phenylaminobenzyl)imidazolidin-1-yl]-2-trifluoromethylbenzonitrile], the IC50 in test [1] was over 10000 nM; in test [3] (setting [5]), 208 nM.

In the case of `CC1(C)C(=O)N(c2ccc(C#N)c(C(F)(F)F)c2)C(=O)N1Cc1c(Cl)cc(Cl)cc1Nc1ccc(F)cc1F` [Example 36, 4-{3-[2,4-dichloro-6-(2,4-difluorophenylamino)benzyl]-4,4-dimethyl-2,5-dioxoimidazolidin-1-yl}-2-trifluoromethylbenzonitrile], the IC50 in test [1] (setting [4]) is over 10000 nM; in test [3] it was 11 nM.

In the case of `CC1(C)C(=O)N(c2ccc(C#N)c(C(F)(F)F)c2)C(=O)N1Cc1ccc(C(F)(F)F)cc1Nc1ccc(Cl)cc1` [Example 57, 4-{3-[2-(4-chlorophenylamino)-4-trifluoromethylbenzyl]-4,4-dimethyl-2,5-dioxoimidazolidin-1-yl}-2-trifluoromethylbenzonitrile], the IC50 is over 10000 nM in test [1] (setting [4]) and 36 nM in test [3].

Consider `CC1(C)C(=O)N(c2ccc(C#N)c(C(F)(F)F)c2)C(=O)N1Cc1ccccc1Nc1ccc(C#N)cc1F` [Example 73, 4-{3-[2-(2-fluoro-4-cyanophenylamino)benzyl]-4,4-dimethyl-2,5-dioxoimidazolidin-1-yl}-2-trifluoromethylbenzonitrile], for which the IC50 in test [1] (setting [4]) was over 10000 nM; in test [3], 7 nM.

Turning to `COc1ccc(Nc2ccccc2CN2C(=O)N(c3ccc(C#N)c(C(F)(F)F)c3)C(=O)C2(C)C)c(F)c1` [Example 74, 4-{3-[2-(2-fluoro-4-methoxyphenylamino)benzyl]-4,4-dimethyl-2,5-dioxoimidazolidin-1-yl}-2-trifluoromethylbenzonitrile], the IC50 was over 10000 nM in test [1] (setting [4]) and 4 nM in test [3].

On to `COc1ccc(Nc2ccccc2CN2C(=O)N(c3ccc(C#N)c(C(F)(F)F)c3)C(=O)C2(C)C)cc1OC` [Example 75, 4-{3-[2-(3,4-dimethoxyphenylamino)benzyl]-4,4-dimethyl-2,5-dioxoimidazolidin-1-yl}-2-trifluoromethylbenzonitrile], for which the IC50 was over 10000 nM in test [1] (setting [4]) and 49 nM in test [3].

For `CC1(C)C(=O)N(c2ccc(C#N)c(C(F)(F)F)c2)C(=O)N1Cc1ccccc1Nc1ccc(CC#N)cc1` [Example 78, 4-{3-[2-(4-cyanomethylphenylamino)benzyl]-4,4-dimethyl-2,5-dioxoimidazolidin-1-yl}-2-trifluoromethylbenzonitrile], the results for the IC50 in test [1] (setting [4]) and in test [3] were over 10000 nM and 4 nM, respectively.

As for `CC1(C)C(=O)N(c2ccc(C#N)c(C(F)(F)F)c2)C(=O)N1Cc1ccccc1Nc1ccc(S(N)(=O)=O)cc1F` [Example 81, 4-{2-[3-(4-cyano-3-trifluoromethylphenyl)-5,5-dimethyl-2,4-dioxoimidazolidin-1-ylmethyl]phenylamino}-3-fluorobenzenesulfonamide], the figures for the IC50 in test [1] and in test [3] (setting [5]) were over 10000 nM and 144 nM, respectively.

On to `COC(=O)Cc1ccc(Nc2ccccc2CN2C(=O)N(c3ccc(C#N)c(C(F)(F)F)c3)C(=O)C2(C)C)cc1` [Example 82, methyl (4-{2-[3-(4-cyano-3-trifluoromethylphenyl)-5,5-dimethyl-2,4-dioxoimidazolidin-1-ylmethyl]phenylamino}phenyl)acetate], for which the IC50 in test [1] (setting [4]) was over 10000 nM; in test [3] it was 52 nM.

Consider `COc1ccc(Nc2ccccc2CN2C(=O)N(c3ccc(C#N)c(C(F)(F)F)c3)C(=O)C2(C)C)cn1` [Example 83, 4-{3-[2-(6-methoxypyridin-3-ylamino)benzyl]-4,4-dimethyl-2,5-dioxoimidazolidin-1-yl}-2-trifluoromethylbenzonitrile], for which the IC50 in test [1] (setting [4]) was over 10000 nM; in test [3], 9 nM.

Regarding `CC1(C)C(=O)N(c2ccc(C#N)c(C(F)(F)F)c2)C(=O)N1Cc1ccccc1Nc1ccc(OC(F)(F)F)cc1F` [Example 85, 4-{3-[2-(2-fluoro-4-trifluoromethoxyphenylamino)benzyl]-4,4-dimethyl-2,5-dioxoimidazolidin-1-yl}-2-trifluoromethylbenzonitrile], the values for the IC50 in test [1] (setting [4]) and in test [3] were over 10000 nM and 7 nM, respectively.

Take `COC(=O)c1ccc(Nc2ccccc2CN2C(=O)N(c3ccc(C#N)c(C(F)(F)F)c3)C(=O)C2(C)C)cn1` [Example 90, methyl 5-{2-[3-(4-cyano-3-trifluoromethylphenyl)-5,5-dimethyl-2,4-dioxoimidazolidin-1-ylmethyl]phenylamino}pyridine-2-carboxylate]: the IC50 in test [1] (setting [4]) was over 10000 nM; in test [3], 39 nM.

On to `CC1(C)C(=O)N(c2ccc(C#N)c(C(F)(F)F)c2)C(=O)N1Cc1ccccc1Nc1ccc(C(F)(F)F)nc1` [Example 91, 4-{4,4-dimethyl-2,5-dioxo-3-[2-(6-trifluoromethylpyridin-3-ylamino)benzyl]-imidazolidin-1-yl}-2-trifluoromethylbenzonitrile], for which the IC50 in test [1] (setting [4]) was over 10000 nM; in test [3] it was 30 nM.

On to `CC1(C)C(=O)N(c2ccc(C#N)c(C(F)(F)F)c2)C(=O)N1Cc1ccccc1Nc1ccc(CC(=O)O)cc1` [Example 92, (4-{2-[3-(4-cyano-3-trifluoromethylphenyl)-5,5-dimethyl-2,4-dioxoimidazolidin-1-ylmethyl]phenylamino}phenyl)acetic acid], for which the IC50 is over 10000 nM in test [1] and 137 nM in test [3] (setting [5]).

With `CC1(C)C(=O)N(c2ccc(C#N)c(C(F)(F)F)c2)C(=O)N1Cc1ccccc1Nc1ccc(CC(N)=O)cc1` [Example 97, 2-(4-{2-[3-(4-Cyano-3-trifluoromethylphenyl)-5,5-dimethyl-2,4-dioxoimidazolidin-1-ylmethyl]phenylamino}phenyl)acetamide], the IC50 is over 10000 nM in test [1] (setting [4]) and 7 nM in test [3].

With `CC1(C)C(=O)N(c2ccc(C#N)c(C(F)(F)F)c2)C(=O)N1Cc1ccccc1Nc1ccc(C(N)=O)cc1` [Example 136, 4-{2-[3-(4-Cyano-3-trifluoromethylphenyl)-5,5-dimethyl-2,4-dioxoimidazolidin-1-ylmethyl]phenylamino}benzamide], the IC50 in test [1] (setting [4]) is over 10000 nM; in test [3], 5 nM.

For the molecule `CC1(C)C(=O)N(c2ccc(C#N)c(C(F)(F)F)c2)C(=O)N1Cc1ccccc1Nc1ccc(C(=O)NC(CO)CO)cc1` [Example 137, 4-{2-[3-(4-cyano-3-trifluoromethylphenyl)-5,5-dimethyl-2,4-dioxoimidazolidin-1-ylmethyl]phenylamino}-N-(2-hydroxy-1-hydroxymethylethyl)benzamide], the IC50 in test [1] (setting [4]) is over 10000 nM. This molecule returned a Ki in test [2] of 51 nM.

As for `CCOC(=O)COc1ccc(Nc2ccccc2CN2C(=O)N(c3ccc(C#N)c(C(F)(F)F)c3)C(=O)C2(C)C)cc1` [Example 138, ethyl (4-{2-[3-(4-cyano-3-trifluoromethylphenyl)-5,5-dimethyl-2,4-dioxoimidazolidin-1-ylmethyl]phenylamino}phenoxy)acetate], the IC50 in test [1] (setting [4]) is over 10000 nM; in test [3], 4 nM.

`COC(=O)c1ccc(Nc2ccccc2CN2C(=O)N(c3ccc(C#N)c(C(F)(F)F)c3)C(=O)C2(C)C)cc1OC` [Example 140, methyl 4-{2-[3-(4-cyano-3-trifluoromethylphenyl)-5,5-dimethyl-2,4-dioxoimidazolidin-1-ylmethyl]phenylamino}-2-methoxybenzoate]: the IC50 in test [1] (setting [4]) was over 10000 nM. Further, in test [2], the Ki was 26 nM.

Regarding `CC1OC(=O)c2cc(Nc3ccccc3CN3C(=O)N(c4ccc(C#N)c(C(F)(F)F)c4)C(=O)C3(C)C)ccc2O1` (stereo not shown) [Example 142, 4-{4,4-dimethyl-3-[2-(2-methyl-4-oxo-4H-1,3-benzodioxin-6-ylamino)benzyl]-2,5-dioxoimidazolidin-1-yl}-2-trifluoromethylbenzonitrile], the IC50 in test [1] (setting [4]) is over 10000 nM. The molecule further yielded a Ki in test [2] of 3 nM.

For the molecule `CC1(C)C(=O)N(c2ccc(F)c(C(F)(F)F)c2)C(=O)N1Cc1ccccc1Nc1ccc(C(=N)NO)cc1` [Example 143, 4-{2-[3-(4-Fluoro-3-trifluoromethylphenyl)-5,5-dimethyl-2,4-dioxoimidazolidin-1-ylmethyl]phenylamino}-N-hydroxybenzamidine hydrochloride], the IC50 in test [1] was over 10000 nM; in test [3] (setting [5]), 13 nM.

As to `CC1(C)C(=O)N(c2ccc(F)c(C(F)(F)F)c2)C(=O)N1Cc1ccccc1Nc1ccc(C(=N)N)cc1` [Example 144, 4-{2-[3-(4-Fluoro-3-trifluoromethylphenyl)-5,5-dimethyl-2,4-dioxoimidazolidin-1-ylmethyl]phenylamino}benzamidine hydrochloride], the IC50 in test [1] is over 10000 nM. Moreover, in test [2] (CHO-K1/cannabinoid CB1 protein 2 μg/well, [3H]-SR141716A 0.5 nM, Ki from IC50 by Cheng-Prusoff, average of double determination, read-out: hCB1R, binding Ki), the Ki worked out at 19 nM.
